According to ChEMBL document CHEMBL1143512, “Antitubercular agents. Part 2: new thiolactomycin analogues active against Mycobacterium tuberculosis” (2005):
≈ marks a conversion by molar mass, not a printed value.

How the values were obtained:
Assay type in all cases: functional
[1] = test system: Mycobacterium tuberculosis; assay: Minimum inhibitory concentration against Mycobacterium tuberculosis H37Rv ATCC 27294
[2] = test system: Mycobacterium tuberculosis; assay: Minimum inhibitory concentration against Mycobacterium tuberculosis sensitive clinical isolates
Mycobacterium avium = assay: Minimum inhibitory concentration against Mycobacterium avium ATCC 49601
[3] = test system: Mycobacterium intracellulare; assay: Minimum inhibitory concentration against Mycobacterium intracellular ATCC 13950
[4] = test system: Mycobacterium tuberculosis; assay: Minimum inhibitory concentration against Mycobacterium tuberculosis sensitive clinical isolates; Range: 0.125-0.25 ug/ml
[5] = test system: Mycobacterium tuberculosis; assay: Minimum inhibitory concentration against Mycobacterium tuberculosis sensitive clinical isolates; Range:4-16 ug/ml
[6] = test system: Mycobacterium tuberculosis; assay: Minimum inhibitory concentration against Mycobacterium tuberculosis sensitive clinical isolates; Range: 1-4 ug/ml

Row | Compound | MIC [1] [µg/mL] | MIC [2] [µg/mL] | MIC (Mycobacterium avium) [µg/mL] | MIC [3] [µg/mL] | MIC [4] [µg/mL] | MIC [5] [µg/mL] | MIC [6] [µg/mL]
1 | CC1=C(OCCCCBr)C(C)SC1=O (stereo not given) | > 16 | > 16 | > 16 | > 16 | – | – | –
2 | CC1=C(OCCCCCCCCCCN2CCN(C)CC2)C(C)SC1=O (stereo not given) | > 16 | > 16 | > 16 | > 16 | – | – | –
3 | CC1=C(OCCCCCCN2CCOCC2)C(C)SC1=O (stereo not given) | > 16 | > 16 | > 16 | > 16 | – | – | –
4 | CC1=C(OCCCCN2CCN(C)CC2)C(C)SC1=O (stereo not given) | > 16 | > 16 | > 16 | > 16 | – | – | –
5 | CC1=C(OCCCCCCCCN2CCN(C)CC2)C(C)SC1=O (stereo not given) | > 16 | > 16 | > 16 | > 16 | – | – | –
6 | CC1=C(OCCCCCCN2CCN(C)CC2)C(C)SC1=O (stereo not given) | > 16 | > 16 | > 16 | > 16 | – | – | –
7 | CC1=C(OCCCCCN2CCN(C)CC2)C(C)SC1=O (stereo not given) | > 16 | > 16 | > 16 | > 16 | – | – | –
8 | CC1=C(OCCCCCCCCN2CCOCC2)C(C)SC1=O (stereo not given) | > 16 | > 16 | > 16 | > 16 | – | – | –
9 | NNC(=O)c1ccncc1 [ISONIAZID] | 0.25 (≈ 1.82 µM) | – | > 16 | 8 (≈ 58.3 µM) | 0.25 (≈ 1.82 µM) | – | –
10 | CC1=C(OCCCCCCBr)C(C)SC1=O (stereo not given) | > 16 | > 16 | > 16 | > 16 | – | – | –
11 | CC1=C(OCCCCCCCCCCBr)C(C)SC1=O (stereo not given) | 4 (≈ 11 µM) | – | > 16 | > 16 | – | 16 (≈ 44 µM) | –
12 | CC1=C(OCCCCCCCCBr)C(C)SC1=O (stereo not given) | > 16 | > 16 | > 16 | > 16 | – | – | –
13 | COC(=O)CSCCCOC1=C(C)C(=O)SC1C (stereo not given) | > 16 | > 16 | > 16 | > 16 | – | – | –
14 | COC(=O)CSCCCCCCOC1=C(C)C(=O)SC1C (stereo not given) | > 16 | > 16 | > 16 | > 16 | – | – | –
15 | CC1=C(OCCCN2CCOCC2)C(C)SC1=O (stereo not given) | > 16 | > 16 | > 16 | > 16 | – | – | –
16 | CC1=C(OCCCBr)C(C)SC1=O (stereo not given) | > 16 | > 16 | > 16 | > 16 | – | – | –
17 | CC1=C(OCCCN2CCN(C)CC2)C(C)SC1=O (stereo not given) | > 16 | > 16 | > 16 | > 16 | – | – | –
18 | COC(=O)CSCCCCCCCCOC1=C(C)C(=O)SC1C (stereo not given) | 1 (≈ 2.77 µM) | – | 8 (≈ 22.2 µM) | 4 (≈ 11.1 µM) | – | – | 4 (≈ 11.1 µM)
19 | COC(=O)CSCCCCCOC1=C(C)C(=O)SC1C (stereo not given) | > 16 | > 16 | > 16 | > 16 | – | – | –
20 | CC1=C(OCCCCCCCCCCN2CCOCC2)C(C)SC1=O (stereo not given) | > 16 | > 16 | > 16 | > 16 | – | – | –
21 | COC(=O)CSCCCCOC1=C(C)C(=O)SC1C (stereo not given) | > 16 | > 16 | > 16 | > 16 | – | – | –
22 | CC1=C(OCCCCN2CCOCC2)C(C)SC1=O (stereo not given) | > 16 | > 16 | > 16 | > 16 | – | – | –
23 | COC(=O)CSCCCCCCCCCCOC1=C(C)C(=O)SC1C (stereo not given) | > 16 | > 16 | > 16 | > 16 | – | – | –
24 | CC1=C(OCCCCCN2CCOCC2)C(C)SC1=O (stereo not given) | > 16 | > 16 | > 16 | > 16 | – | – | –
25 | CC1=C(OCCCCCBr)C(C)SC1=O (stereo not given) | > 16 | > 16 | > 16 | > 16 | – | – | –
